Molecules are shown by their SMILES.

The nature of the data set: gradient 5% acetonitrile 3 min, to 50% in 2 min, to 85% in 15 min, held 3 min, 100 µL/min. The conditions noted are these: column: Zorbax Extend-C18 2.1 x 50 mm; eluents: water / acetonitrile, 0.1% formic acid. In outline:
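Pure standards were run in mixtures of ~100 molecules by HPLC coupled to a quadrupole time-of-flight mass spectrometer. The column was a Zorbax Extend-C18 (2.1 × 50 mm, 1.8 μm) at 100 μL/min, with water and acetonitrile each containing 0.1% formic acid, in positive and negative ionization mode. Dead and dwell volumes were 40 μL and 900 μL. Retention time was taken from computationally picked adduct peaks, each manually inspected, with data collected over 3 months.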
`COCCn1ncc(N2CCC(C(=O)NCc3ccc(C)o3)C2)cc1=O` (stereo not given) gave an RP-LC retention time of 650 s. Regarding `Cc1ccc(CNC(=O)N2CCC3(CC2)NC(=O)c2ccccc2O3)cc1`, the RP-LC retention time is 757 s.

`COc1cc(-c2nc3cccc(C)n3c2Nc2ccc3c(c2)OCCO3)ccc1O` came in with an RP-LC retention time of 634 s. On to `O=c1n(Cc2c(F)cccc2Cl)nc2c(S(=O)(=O)N3CCc4ccccc4C3)cccn12`, for which the RP-LC retention time was found to be 975 s. As for `COc1ccc2c(c1)C1(CCN(C(=O)CCc3ccccc3)C1)C(=O)N2` (stereo not given), the RP-LC retention time came to 728 s. In the case of `CSc1ccc(-c2nc3cnccn3c2NC2CCCCC2)cc1`, the RP-LC retention time stood at 1010 s. `CCc1ccccc1Nc1c(-c2nc(C)no2)cnc2nc(C)ccc12` yielded an RP-LC retention time of 826 s.

Consider `Clc1ccc(Cn2c(CN3CCCC3)nc3ccccc32)cc1`, for which the RP-LC retention time is 750 s.

`O=C(Nc1cc(F)ccc1F)N1CCc2nc[nH]c2C1` displayed an RP-LC retention time of 571 s.

Compound `COC(=O)CCN(C(=O)c1ccc(OC(C)=O)cc1)c1ccccn1` had an RP-LC retention time of 668 s.

In turn, `O=S(=O)(NCc1ccc(F)cc1)c1ccccc1-c1nc(-c2ccc(F)cc2)no1` yielded an RP-LC retention time of 1180 s. `CCOCCOC(=O)C1=C(C)NC2=C(C(=O)C(C(=O)OC)C(C)C2)C1c1ccccc1F` (stereo not given): the RP-LC retention time was 862 s. Take `O=C(c1ccccc1Cl)N1CCC(Cc2nnc(-c3ccccc3)o2)CC1`: the RP-LC retention time was found to be 864 s.

Take `COc1ccc(C2Cn3nnc(-c4nc(-c5ccc(C(F)(F)F)cc5)no4)c3CO2)cc1` (stereo not given): the RP-LC retention time worked out at 1270 s. `O=C(O)c1cc(-c2ccccc2F)n[nH]1`: the RP-LC retention time was determined as 630 s.

Consider `Cc1sc(C)c(S(=O)(=O)Nc2cccc(F)c2)c1-c1cc(C(F)(F)F)on1`, for which the RP-LC retention time is 1140 s. With `Cc1ccc(Nc2c(-c3cccc([N+](=O)[O-])c3)nc3ccc(Cl)cn23)cc1`, the RP-LC retention time came to 1100 s.

The compound `Cc1nn(-c2ccc(Cl)nn2)c2c1CCC2` yielded an RP-LC retention time of 946 s. As for `CCOC(=O)N1CCc2c(sc(NC(=O)c3cc(C)on3)c2C(=O)OC)C1`, the RP-LC retention time came to 949 s. Consider `O=C(N1CCC(Cc2nc(C3CCOCC3)no2)CC1)C1(c2ccccc2)CC1`, for which the RP-LC retention time is 817 s. To `CCc1nc(OCC(=O)Nc2ccc(C)cc2Cl)c2ccccc2n1` belongs 885 s.

Compound `COc1ccccc1N1CCN(CCNC(=O)NCc2cccs2)CC1` gave an RP-LC retention time of 586 s.

On to `CCOC(=O)c1c(C)[nH]c(C(=O)N2CCCC(C(=O)NCCc3ccco3)C2)c1C` (stereo not given), for which the RP-LC retention time worked out at 781 s. Compound `CCN1C(=O)COc2ccc(-c3csc(NC(=O)c4ccco4)n3)cc21` showed an RP-LC retention time of 840 s.

Compound `CCS(=O)(=O)N(C)C1CCc2nn(Cc3ccccc3)c(=O)n2CC1` (stereo not given) had an RP-LC retention time of 710 s.

Compound `CC(C)NC(=O)NCCN1CCN(c2ccccc2)CC1` had an RP-LC retention time of 569 s. The compound `Cc1ccc(CN2CCN(CC(=O)Nc3ccc(Cl)cc3)C(=O)C2=O)cc1` had an RP-LC retention time of 836 s. Regarding `O=C(N[C@H](Cc1ccccc1)C(=O)NCc1cscn1)c1ccc(F)cc1`, the RP-LC retention time turned out to be 1090 s.

`O=C(NC1CCCCCC1)C1CCN(S(=O)(=O)c2cc(-c3noc(C4CC4)n3)cs2)CC1` showed an RP-LC retention time of 1040 s. Compound `CCN1c2ccc(F)cc2C(=O)NC12CCN(C(=O)c1cc(F)cc(F)c1)CC2` gave an RP-LC retention time of 1030 s. In the case of `O=C(c1cccc([N+](=O)[O-])c1)N1CCN(C(c2ccccc2)c2ccccc2)CC1`, the RP-LC retention time worked out at 757 s.

`O=C([C@@H]1C[C@H](F)CN1C(=O)c1cccc(F)c1)N1CCCCC1` came in with an RP-LC retention time of 693 s. Turning to `Cc1ccc(N2CCC(NC(=O)Nc3cc(C)ccc3C)C2=O)cc1` (stereo not given), the RP-LC retention time amounted to 618 s.

Compound `CCC(C)NC(=O)N1CCN(c2cc(-c3cccc(F)c3)ncn2)CC1` (stereo not given) had an RP-LC retention time of 650 s.

In turn, `Cc1cccc(-n2ncc3c(NCCCN4CCCC4=O)ncnc32)c1` came in with an RP-LC retention time of 682 s.

`CN1C(=O)c2cc(C(=O)Nc3cccc(F)c3)nn2CC1(C)C(=O)NC1CCCCCC1` (stereo not given) displayed an RP-LC retention time of 791 s. To `CC(C)c1ccc(-c2nc(-c3ccc4c(c3)oc(=O)n4C)no2)cc1` belongs 1250 s. As for `O=S(=O)(Cc1ccccc1F)N1CCC(c2noc(-c3ccncc3)n2)C1` (stereo not given), the RP-LC retention time worked out at 839 s. To `Cc1cc(C)c2c(N3CCSCC3)nc(C(=O)NCCCN3CCCC3)nc2n1` belongs 552 s. Compound `CCc1cc2nn(CC#N)c(=O)n2c(C(C)C)n1` showed an RP-LC retention time of 871 s. On to `O=C(O)CN1CCCc2c(cnn2Cc2ccccc2)C1=O`, for which the RP-LC retention time worked out at 656 s. Then `O=c1n(Cc2ccccc2Cl)nc2n1CCCCC2`, with 768 s; and `CCOC(=O)c1ccc(Oc2ncnc(N)c2[N+](=O)[O-])cc1`, with 769 s. `CC(C)CN1CCN(C(=O)CN2CCN(Cc3ccc(F)cc3Cl)C2=O)CC1` came in with an RP-LC retention time of 634 s. To `CN[C@@H](C)C(=O)N[C@H](C(=O)N1CCC[C@H]1c1nc(C(=O)c2ccc(F)cc2)cs1)C1CCCCC1` belongs 787 s; to `CN1c2ccc(F)cc2C(=O)NC12CCN(C(=O)Cc1ccccc1Cl)CC2`, 774 s. `Cc1ccc2c(c1)cc(S(=O)(=O)c1ccccc1)c(=O)n2CC(=O)NCC1CCCO1` (stereo not given) gave an RP-LC retention time of 765 s. In turn, `Cc1cc(C)cc(C(=O)N2CCC(c3noc(N)c3C(C)C)CC2)c1` yielded an RP-LC retention time of 829 s. Then `O=C([C@@H]1C[C@H](Oc2cccnc2)CN1C(=O)CCC1CCCC1)N1CCCC1`, with 640 s. With `CCNC(=O)N1CCCC(c2cccc(C(=O)NCc3ccc(C)c(C)c3)c2)C1` (stereo not given), the RP-LC retention time was 866 s. `COc1cccc(C(=O)NC(NC(=O)c2cccc(OC)c2)c2ccc3c(c2)OCO3)c1` returned an RP-LC retention time of 758 s.

For the compound `Cc1cc(N2CCN(c3ccccn3)CC2)n2nc(-c3ccccc3)c(C)c2n1`, the RP-LC retention time worked out at 614 s. Regarding `Cc1cccc(-c2nc(Cn3nnc(-c4nc(-c5cccnc5)no4)c3C)c(C)o2)c1`, the RP-LC retention time came to 1060 s. To `CCC(=O)Nc1ccc2c(c1)CN(C(=O)c1cccc(Cl)c1)C(C(=O)N1CCCC1)C2` (stereo not given) belongs 1070 s. For the compound `COCC(=O)N1CCCc2ccc(NC(=O)NCc3cccs3)cc21`, the RP-LC retention time came out at 662 s. Consider `Cc1cc(C)c(S(=O)(=O)Nc2ccc(-c3cn4ccccc4n3)cc2)cc1C`, for which the RP-LC retention time was 719 s.

Regarding `CCCS(=O)(=O)N1CCc2nc(N3CCN(C)CC3)sc2C1`, the RP-LC retention time worked out at 764 s.

The compound `Cn1cnc2cc(-c3noc(CNC(=O)Cc4ccc(Cl)cc4)n3)ccc21` came in with an RP-LC retention time of 652 s.

Regarding `CCc1ccccc1NC(=O)N1CCC2(CC1)NC(=O)c1cccc(Cl)c1N2`, the RP-LC retention time came out at 766 s.

In turn, `Cc1nc(CNC(=O)[C@H]2CCCN2S(=O)(=O)c2ccc(Br)cc2)cs1` gave an RP-LC retention time of 794 s.

Regarding `Cc1ccc(NC(=O)C2CCCN(C(=O)C3Sc4ccccc4NC3=O)C2)cc1F` (stereo not given), the RP-LC retention time was 844 s. Compound `Cc1cccc(CN2CCn3c(nnc3[C@@H]3C[C@@H](O)CN3Cc3ccccc3)C2)c1` had an RP-LC retention time of 650 s. Regarding `CCOC(=O)N1CCN(Cc2nc(-c3ccc(N4CCCCC4)nc3)no2)CC1`, the RP-LC retention time turned out to be 757 s. Take `CCCNC(=O)NCCC1CCN(S(=O)(=O)c2ccc(F)cc2)CC1`: the RP-LC retention time stood at 771 s. `Cc1ccc(CNC(=O)C2CCN(c3cnn(C)c(=O)c3)C2)o1` (stereo not given) had an RP-LC retention time of 641 s. Consider `CCN(CC)S(=O)(=O)c1cc(-c2nnc(-c3ccc(OC)cc3)o2)ccc1C`, for which the RP-LC retention time is 1030 s. `COc1ccc(N2CCN(C(=O)c3csc(-c4ccc(N5CCCC5)nc4)n3)CC2)cc1` showed an RP-LC retention time of 651 s. `CC1=C(c2ccc(F)cc2)S(=O)(=O)N=C1N1CCC(C(=O)NC2CCCC2)CC1` displayed an RP-LC retention time of 798 s. In turn, `CCc1ccc(-c2csc(Nc3ccc(S(=O)(=O)Nc4cc(OC)nc(OC)n4)cc3)n2)cc1` came in with an RP-LC retention time of 1150 s. Then `COc1ccc2nc(C(=O)NCc3cc(F)ccc3F)cn2n1`, with 823 s. In turn, `O=C(Nc1ccccc1)C1CC(=O)N(c2ccc3c(c2)CCN3C(=O)C2CC2)C1` (stereo not given) came in with an RP-LC retention time of 743 s. `CC1(C(=O)N2CCN(c3ccccn3)CC2)CCCCC(=O)N1` (stereo not given) had an RP-LC retention time of 552 s.

`Cc1cccc(OCc2nc(C)c(C(=O)N3CCC(C(N)=O)CC3)s2)c1` registered an RP-LC retention time of 962 s. Then `Cc1nc2cc(-c3noc(-c4c(F)cccc4Cl)n3)ccc2o1`, with 1100 s; and `Cc1[nH]c(C(=O)NCc2ccccc2Cl)c(C)c1S(=O)(=O)N1CCCC1`, with 866 s; and `O=C(NCc1ccccn1)c1c(OCC2CC2)cc(=O)n2c1CCCCC2`, with 586 s. Consider `COc1cccc(NC(=O)N2CCC(CC(=O)N3CCCCC3)CC2)c1`, for which the RP-LC retention time was 718 s. With `CCC(=O)NCc1nc2c(n1C)CN(C(=O)c1cccc(Br)c1)CC2`, the RP-LC retention time was determined as 591 s. For the compound `CCCNC(=O)Cn1cnc2sc(C(=O)N3CC(C)CC(C)C3)c(C)c2c1=O` (stereo not given), the RP-LC retention time was found to be 779 s.

`O=C(Nc1nc(C(=O)N2CCN(c3ccccn3)CC2)co1)c1cnccn1` registered an RP-LC retention time of 517 s.

Source of the values: the METLIN SMRT retention time set (Domingo-Almenara et al. 2019).
